Measurements: US20240391931A1 (Bristol-Myers Squibb Company, priority 2021, published 2024)
Structures can show the parent of a compound that is named as a salt. Values belong to the compound of their own block, whether it stands above or below them.

Legend:
HER2YVMA [1] = biological target: T1, HER2YVMA (Homo sapiens, UniProt P04626, INS775YVMA); test: HER2 signaling (pHER2) in Ba/F3-HER2YVMA cells; assay type: cell-based; parameters: expressed in transfected cells; host or cells: HEK293 (pool), Ba/F3 (clones), BEAS2B (clones); lentiviral vector pCDH-CMV-MCS-EF1-Neo; conditions: read-out: Ba/F3 YVMA pHER2 EC50
T1 sequence (P04626 with tags, fused parts or gaps INS775YVMA): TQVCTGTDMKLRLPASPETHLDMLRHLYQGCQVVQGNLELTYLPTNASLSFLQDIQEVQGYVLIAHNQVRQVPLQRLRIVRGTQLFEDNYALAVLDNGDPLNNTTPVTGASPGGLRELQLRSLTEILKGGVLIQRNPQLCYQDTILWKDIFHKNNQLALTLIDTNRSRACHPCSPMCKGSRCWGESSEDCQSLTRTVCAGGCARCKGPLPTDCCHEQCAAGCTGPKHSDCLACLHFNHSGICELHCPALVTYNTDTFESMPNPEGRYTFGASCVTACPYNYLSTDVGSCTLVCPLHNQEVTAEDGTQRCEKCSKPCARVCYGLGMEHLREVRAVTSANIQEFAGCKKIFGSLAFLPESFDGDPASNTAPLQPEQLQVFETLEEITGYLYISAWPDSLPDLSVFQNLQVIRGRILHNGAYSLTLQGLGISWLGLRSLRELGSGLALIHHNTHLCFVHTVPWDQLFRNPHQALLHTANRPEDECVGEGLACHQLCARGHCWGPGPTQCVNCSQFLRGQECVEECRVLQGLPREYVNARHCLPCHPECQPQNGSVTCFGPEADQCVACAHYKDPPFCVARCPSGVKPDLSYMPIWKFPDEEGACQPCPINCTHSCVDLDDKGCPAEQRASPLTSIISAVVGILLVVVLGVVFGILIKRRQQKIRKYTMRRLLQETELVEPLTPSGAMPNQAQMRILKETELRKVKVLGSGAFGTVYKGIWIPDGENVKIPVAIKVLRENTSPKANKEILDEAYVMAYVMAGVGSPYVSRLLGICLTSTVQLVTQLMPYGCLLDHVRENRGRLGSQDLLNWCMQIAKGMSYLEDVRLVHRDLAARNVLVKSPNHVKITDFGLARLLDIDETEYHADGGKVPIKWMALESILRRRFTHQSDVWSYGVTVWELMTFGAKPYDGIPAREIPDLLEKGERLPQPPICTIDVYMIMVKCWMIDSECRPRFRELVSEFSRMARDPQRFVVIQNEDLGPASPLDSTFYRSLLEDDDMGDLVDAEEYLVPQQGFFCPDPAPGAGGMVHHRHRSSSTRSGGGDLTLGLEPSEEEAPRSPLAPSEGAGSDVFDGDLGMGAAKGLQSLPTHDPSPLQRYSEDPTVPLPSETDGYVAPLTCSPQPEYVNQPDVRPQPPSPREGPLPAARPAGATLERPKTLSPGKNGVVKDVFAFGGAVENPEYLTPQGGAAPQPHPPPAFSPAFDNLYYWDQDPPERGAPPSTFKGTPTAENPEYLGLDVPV
Experimental: Cell culture, plasmid cloning, and lentiviral transduction were carried out according to standard procedures. The Human HER2 cDNA construct in pCMV6-Entry for the HER2 wildtype (WT) expression was obtained from Origene. The HER2 cDNA including the 12-nucleotide insertion corresponding to YVMA insertion (HER2YVMA) was codon optimized, synthesized and cloned by GenScript (Piscataway, NJ) in pcDNA3.1. The lentiviral constructs expressing HER2YVMA and HER2 WT were sub-cloned using PCR at System Biosciences (SBI, Mountainview, CA) into lentiviral vectors pCDH-CMV-MCS-EF1-Neo and lentiviral particles were generated.
Engineered lines expressing HER2YVMA and HER2 WT were prepared in HEK293 (human embryonic kidney cells), Ba/F3 (Interleukin 3 (IL3)-dependent murine pro B cell line), and BEAS2B (primary immortalized human bronchial epithelial cell line). Ba/F3, BEAS2B, and HEK293 cells were obtained from the American Type Culture Collection (ATCC, Manassas, VA). Parental Ba/F3 cells were grown in suspension in complete RPMI 1640 supplemented with 10% FBS and 1% P/S and 10 ng/ml interleukin 3 (IL3, Sigma-Aldrich). Hek293 and BEAS2B cells were grown as monolayers in DMEM supplemented with 10% FBS and 1% P/S. All cells were maintained and propagated in a humidified 5% CO2 incubator at 37° C.
To generate Ba/F3, BEAS2B, and Hek-293 cells engineered with lentivirus to express HER2 WT or HER2YVMA, the cells were transduced with lentiviruses at multiplicity of infection (MOI) of 1 or 10; transduced cells were selected and maintained with G418 ([…]) (Geneticin, Life Technologies, Carlsbad, CA). Ba/F3 engineered cells were subjected to gradual withdrawal of interleukin 3 (IL-3, Sigma-Aldrich). After selection, IL3 independent Ba/F3 HER2YVMA, and BEAS2B HER2YVMA cells were cloned by limiting dilution. Hek293 HER2YVMA cells were used as pool. HER2 and phospho HER2 levels were confirmed by flow cytometery and immunoassay (MSD, Meso-Scale Discovery, Rockville, Maryland).
Compound treatment of Ba/F3-HER2YVMA suspension cells was done as described with minor modifications. Cells were plated at 300000 cell/well in 96-well round bottom plates in RPMI supplemented with 2% FBS and immediately dosed with compounds serially diluted in media without serum for a final concentration of 1% FBS, 0.1% DMSO. Cells were incubate with compounds for 1.5 hr, and plates were spun at 1500 rpm for 5 mins to remove media without disturbing pellet. Cells were lysed as described above.
HER2 signaling was evaluated using phospho (Tyr1248)/total ErbB2 whole cell lysate MSD plates (Meso-Scale Discovery, Gaithersburg, MD). The phospho HER2 signal was normalized to total HER2 for each sample; results are reported as % DMSO control. The normalized data was fitted using a sigmoidal curve analysis program (Graph Pad Prism version 6) with variable Hill slope to determine EC50 values.
The HER2 signaling results are provided in Table 4, under columns titled “BT474-pHER2 EC50”, “N87-pHER2 EC50”, and “NCI-H1781-pHER2 EC50”. Hek293-HER2YVMA ins fall under the heading “HEKYVMA-pHER2 EC50”, Ba/F3 HER2YVMA fall under the heading “Ba/F3 YVMA-pHER2 EC50” and BEAS2B-HER2YVMA fall under the heading “BEAS2B YVMA-pHER2 EC50”.

HER2YVMA [2] = biological target: T1, HER2YVMA; test: HER2 occupancy assay in Ba/F3-HER2YVMA cells; assay type: cell-based; parameters: expressed in transfected cells; host or cells: Ba/F3 (clones); lentiviral vector pCDH-CMV-MCS-EF1-Neo; conditions: concentration at which 50% of HER2 is irreversible bound, read-out: Ba/F3 YVMA HER2 Occ
Experimental: In order to assess free HER2 protein, a biotinylated probe was utilized. BT474, N87, and Ba/F3-HER2YVMA cells were treated with test compound as described for HER2 signaling. After compound treatment, cells were washed three times with cold phosphate buffer saline (PBS, Life Technologies, Carlsbad, CA), and lysed in modified occupancy lysis buffer prepared with an irreversible biotinylated tool compound (1 μM) in 25 mM Tris pH 7.5, 150 mM NaCl, 1% Triton, and supplemented with cOmplete, EDTA-free Protease inhibitor cocktail (Roche), Phosphatase Inhibitor Cocktails 2 and 3 (Sigma-Aldrich), and 1 mM PMSF (Sigma-Aldrich). To determine % occupancy, lysates were loaded into duplicate plates of the phospho ([…])/total ErbB2 whole cell lysate MSD kit (Meso-Scale Discovery) and incubated overnight. Plates were washed and incubation with either HER2-sulfoTag (1:50, Meso Scale Discovery) or Strep-Sulfo Tag (1:1000, Meso Scale Discovery), for detection of […]. A standard curve of untreated cells in serial dilution was included in each plate to independently fit streptavidin (Free HER2) and total HER2 MSD signals; non-specific signal (BSA control spots) was subtracted from each well. Free HER2 was then normalized by total HER2 for each sample. The results are reported as % DMSO control. The normalized data was fitted using a sigmoidal curve analysis program (Graph Pad Prism version 6) with variable Hill slope to determine EC50 values. The results are provided in Table 4, under columns titled “BT474-HER2 Occ”, “N87-HER2 Occ”, and “Ba/F3 YVMA-HER2 Occ”. HER2 Occ is the concentration of test compound at which 50% of HER2 is irreversible bound.

Compound: Cc1ccc(Oc2ccc(Nc3ncnc4sc5c(c34)CCN(C(=O)/C=C/CN(C)C)C5)cc2C)cn1 [Compound 8, (E)-4-(Dimethylamino)-1-(4-((3-methyl-4-((6-methylpyridin-3-yl)oxy)phenyl)amino)-5,6-dihydropyrido[4′,3′:4,5]thieno[2,3-d]pyrimidin-7(8H)-yl)but-2-en-1-one]
EC50 (HER2YVMA [1]): < 0.1 µM
EC50 (HER2YVMA [2]): < 0.1 µM

EC50 (HER2YVMA [1]): < 0.1 µM
Compound: Cc1cc(Nc2ncnc3sc4c(c23)CCN(C(=O)/C=C/CN2CCOCC2)C4)ccc1Oc1ccc2ncnn2c1 [Compound 12]

Compound: Cc1ccc(Oc2ccc(Nc3ncnc4sc5c(c34)CCN(C(=O)/C=C/CN3CC4CCC(C4)C3)C5)cc2C)cn1 [Compound 16, (E)-4-(3-azabicyclo[3.2.1]octan-3-yl)-1-(4-((3-methyl-4-((6-methylpyridin-3-yl)oxy)phenyl)amino)-5,8-dihydropyrido[4′,3′:4,5]thieno[2,3-d]pyrimidin-7(6H)-yl)but-2-en-1-one benzenesulfonate salt]
EC50 (HER2YVMA [1]): < 0.1 µM
EC50 (HER2YVMA [2]): < 0.1 µM

Compound: Cc1ccc(Oc2ccc(Nc3ncnc4sc5c(c34)CCN(C(=O)/C=C/CN3CCOCC3)C5)cc2C)cn1 [Compound 17, (E)-1-(4-((3-Methyl-4-((6-methylpyridin-3-yl)oxy)phenyl)amino)-5,6-dihydropyrido[4′,3′:4,5]thieno[2,3-d]pyrimidin-7(8H)-yl)-4-morpholinobut-2-en-1-one]
EC50 (HER2YVMA [1]): < 0.1 µM
EC50 (HER2YVMA [2]): < 0.1 µM
